{"source": "ChEMBL document CHEMBL5465560", "about": "“Selectivity Literature for EUbOPEN Chemogenomic Library” (2024)", "key": {"[1]": {"target": "Activin receptor type-2B (Homo sapiens) (UniProt Q13705)", "sequence (Q13705 whole entry)": "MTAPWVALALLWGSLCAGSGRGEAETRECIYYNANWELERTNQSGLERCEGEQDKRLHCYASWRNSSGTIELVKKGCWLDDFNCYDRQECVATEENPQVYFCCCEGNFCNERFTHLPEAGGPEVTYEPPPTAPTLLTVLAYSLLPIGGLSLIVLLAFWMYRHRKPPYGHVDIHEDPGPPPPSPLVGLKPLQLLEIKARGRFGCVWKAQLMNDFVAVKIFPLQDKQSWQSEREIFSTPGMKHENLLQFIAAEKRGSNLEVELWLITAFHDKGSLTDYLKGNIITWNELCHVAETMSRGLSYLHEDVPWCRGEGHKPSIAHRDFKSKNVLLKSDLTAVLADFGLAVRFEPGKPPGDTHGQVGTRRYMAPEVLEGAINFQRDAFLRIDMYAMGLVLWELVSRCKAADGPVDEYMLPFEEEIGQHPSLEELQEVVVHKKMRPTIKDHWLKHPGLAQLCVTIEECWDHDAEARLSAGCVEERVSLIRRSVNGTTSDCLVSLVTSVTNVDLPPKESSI", "test": "Selectivity interaction (KinomeScan (DiscoverX)) EUB0000045b ACVR2B"}, "[2]": {"target": "Serine/threonine-protein kinase SIK1 (Homo sapiens) (UniProt P57059)", "sequence (P57059 whole entry)": "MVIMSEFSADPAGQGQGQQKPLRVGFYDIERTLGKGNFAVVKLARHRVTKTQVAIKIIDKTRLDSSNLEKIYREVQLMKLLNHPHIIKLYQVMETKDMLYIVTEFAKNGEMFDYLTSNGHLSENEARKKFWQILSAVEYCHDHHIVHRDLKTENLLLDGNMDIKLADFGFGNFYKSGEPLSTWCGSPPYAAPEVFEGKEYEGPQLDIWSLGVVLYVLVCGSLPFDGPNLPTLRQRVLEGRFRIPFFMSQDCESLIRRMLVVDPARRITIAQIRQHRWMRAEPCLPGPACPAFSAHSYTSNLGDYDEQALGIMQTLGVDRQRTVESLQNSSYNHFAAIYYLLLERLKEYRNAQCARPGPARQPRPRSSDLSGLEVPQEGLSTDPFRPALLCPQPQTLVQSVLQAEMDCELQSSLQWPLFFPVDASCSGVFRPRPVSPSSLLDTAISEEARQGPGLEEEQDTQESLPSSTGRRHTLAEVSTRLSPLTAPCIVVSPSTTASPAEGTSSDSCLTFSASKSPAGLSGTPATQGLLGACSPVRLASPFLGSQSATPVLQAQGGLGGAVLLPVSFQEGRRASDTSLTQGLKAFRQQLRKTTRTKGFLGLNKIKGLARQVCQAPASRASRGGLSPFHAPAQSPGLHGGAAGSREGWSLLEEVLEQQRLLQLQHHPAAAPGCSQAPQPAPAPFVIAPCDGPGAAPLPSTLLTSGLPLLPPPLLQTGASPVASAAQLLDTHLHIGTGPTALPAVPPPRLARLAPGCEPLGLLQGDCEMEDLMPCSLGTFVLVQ", "conditions": "at 10 µM"}, "[3]": {"target": "T1, Serine/threonine-protein kinase Nek9 (Homo sapiens) (UniProt Q8TD19)", "T1 sequence (whole entry)": "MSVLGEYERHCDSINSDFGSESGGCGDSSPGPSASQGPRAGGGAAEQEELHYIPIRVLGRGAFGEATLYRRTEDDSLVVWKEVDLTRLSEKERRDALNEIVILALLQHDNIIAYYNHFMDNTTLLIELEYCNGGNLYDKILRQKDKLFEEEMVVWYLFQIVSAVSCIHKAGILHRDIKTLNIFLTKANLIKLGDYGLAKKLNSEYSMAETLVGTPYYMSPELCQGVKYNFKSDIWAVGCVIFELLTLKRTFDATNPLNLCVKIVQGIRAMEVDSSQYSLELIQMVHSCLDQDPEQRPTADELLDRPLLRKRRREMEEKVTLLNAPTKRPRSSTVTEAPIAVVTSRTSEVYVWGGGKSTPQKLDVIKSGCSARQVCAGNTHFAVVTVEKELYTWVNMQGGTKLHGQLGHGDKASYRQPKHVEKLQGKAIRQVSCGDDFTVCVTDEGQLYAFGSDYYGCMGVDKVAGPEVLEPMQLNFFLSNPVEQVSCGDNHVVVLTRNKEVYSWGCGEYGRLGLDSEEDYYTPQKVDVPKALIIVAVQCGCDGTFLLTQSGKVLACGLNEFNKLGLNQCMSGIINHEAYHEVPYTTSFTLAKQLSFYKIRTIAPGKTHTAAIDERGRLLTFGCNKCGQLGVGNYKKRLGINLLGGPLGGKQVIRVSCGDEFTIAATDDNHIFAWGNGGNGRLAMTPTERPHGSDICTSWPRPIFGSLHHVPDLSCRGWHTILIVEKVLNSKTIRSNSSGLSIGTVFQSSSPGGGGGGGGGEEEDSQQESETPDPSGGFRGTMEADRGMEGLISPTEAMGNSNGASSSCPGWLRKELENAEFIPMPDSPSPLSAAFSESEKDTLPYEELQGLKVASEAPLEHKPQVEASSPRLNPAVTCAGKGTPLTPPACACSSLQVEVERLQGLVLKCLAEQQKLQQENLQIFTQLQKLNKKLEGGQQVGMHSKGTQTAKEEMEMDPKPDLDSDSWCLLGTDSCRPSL", "test": "Selectivity interaction (ActivX KiNativ screen (ex vivo kinase selectivity in human PBMCs)) EUB0001619a NEK9", "type": "cell-based", "conditions": "PBMC, at 1 µM"}, "[4]": {"target": "T2, Beta-adrenergic receptor kinase 1 (Homo sapiens) (UniProt P25098)", "T2 sequence (whole entry)": "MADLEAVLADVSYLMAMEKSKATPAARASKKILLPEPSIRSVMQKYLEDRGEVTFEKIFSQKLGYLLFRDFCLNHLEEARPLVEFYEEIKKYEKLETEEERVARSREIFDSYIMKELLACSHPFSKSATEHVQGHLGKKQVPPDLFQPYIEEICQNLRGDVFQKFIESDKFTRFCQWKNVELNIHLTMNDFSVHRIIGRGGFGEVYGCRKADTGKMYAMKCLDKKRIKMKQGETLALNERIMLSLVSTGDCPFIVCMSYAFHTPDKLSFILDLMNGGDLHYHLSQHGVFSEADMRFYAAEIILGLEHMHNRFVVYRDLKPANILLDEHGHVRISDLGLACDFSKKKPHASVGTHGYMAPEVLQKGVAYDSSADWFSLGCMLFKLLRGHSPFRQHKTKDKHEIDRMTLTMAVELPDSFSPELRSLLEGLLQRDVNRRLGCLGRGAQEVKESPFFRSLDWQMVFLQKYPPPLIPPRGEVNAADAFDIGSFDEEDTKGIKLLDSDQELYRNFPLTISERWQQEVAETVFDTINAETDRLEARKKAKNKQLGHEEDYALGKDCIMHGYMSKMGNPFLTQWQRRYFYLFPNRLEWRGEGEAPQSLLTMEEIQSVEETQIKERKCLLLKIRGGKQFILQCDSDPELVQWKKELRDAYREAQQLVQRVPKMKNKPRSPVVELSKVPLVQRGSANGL", "test": "Selectivity interaction (ActivX KiNativ screen (kinase selectivity in THP-1 cell lysates)) EUB0000639a ADRBK1", "type": "subcellular", "conditions": "lysate"}, "[5]": {"target": "Serine/threonine-protein kinase SIK1 (Homo sapiens) (UniProt P57059)", "test": "Selectivity interaction (KinomeScan (DiscoverX)) EUB0000655a SIK1", "conditions": "at 10 µM"}, "[6]": {"target": "T3, Serine/threonine-protein kinase PLK4 (Homo sapiens) (UniProt O00444)", "T3 sequence (whole entry)": "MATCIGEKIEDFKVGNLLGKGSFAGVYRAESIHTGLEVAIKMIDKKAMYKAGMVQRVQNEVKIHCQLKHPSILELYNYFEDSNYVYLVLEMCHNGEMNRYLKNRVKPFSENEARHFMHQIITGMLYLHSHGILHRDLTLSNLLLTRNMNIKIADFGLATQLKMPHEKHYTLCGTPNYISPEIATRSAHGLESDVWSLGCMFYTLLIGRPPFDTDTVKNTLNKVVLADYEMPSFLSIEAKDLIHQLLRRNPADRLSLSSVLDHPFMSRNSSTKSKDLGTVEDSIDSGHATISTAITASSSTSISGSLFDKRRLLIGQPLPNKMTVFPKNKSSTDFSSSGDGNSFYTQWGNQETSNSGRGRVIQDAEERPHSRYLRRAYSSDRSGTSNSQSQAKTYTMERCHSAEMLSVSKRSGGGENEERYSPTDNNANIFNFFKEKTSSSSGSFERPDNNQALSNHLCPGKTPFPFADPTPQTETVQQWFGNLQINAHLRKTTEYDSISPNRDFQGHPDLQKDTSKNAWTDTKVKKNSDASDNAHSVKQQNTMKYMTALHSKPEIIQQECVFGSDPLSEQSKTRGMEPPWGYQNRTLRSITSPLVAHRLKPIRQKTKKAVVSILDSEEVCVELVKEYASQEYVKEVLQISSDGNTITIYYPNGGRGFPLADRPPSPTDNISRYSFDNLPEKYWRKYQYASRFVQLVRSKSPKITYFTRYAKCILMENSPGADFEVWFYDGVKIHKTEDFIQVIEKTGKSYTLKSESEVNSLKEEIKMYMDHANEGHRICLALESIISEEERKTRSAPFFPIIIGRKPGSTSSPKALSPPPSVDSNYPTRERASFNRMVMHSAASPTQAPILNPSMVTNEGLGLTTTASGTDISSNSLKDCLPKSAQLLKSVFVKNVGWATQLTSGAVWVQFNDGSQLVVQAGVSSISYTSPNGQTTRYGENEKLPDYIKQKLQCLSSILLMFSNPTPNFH", "conditions": "at 10 µM"}}, "data": [{"smiles": "C=CC(=O)Nc1cc(-n2c(=O)ccc3cnc4ccc(-c5ccc(NS(C)(=O)=O)cc5)cc4c32)ccc1C", "values": [{"measurement": "% of control", "setting": "[1]; at 1 µM", "result": 100, "unit": "%"}, {"measurement": "% of control", "setting": "[1]; at 10 µM", "result": 84, "unit": "%"}]}, {"smiles": "Cc1cc([C@@H](C)Nc2ccccc2C(=O)O)c2nc(N3CCOCC3)cc(=O)n2c1", "note": "[AZD-6482]", "values": [{"measurement": "% of control", "setting": "[2]", "result": 100, "unit": "%"}]}, {"smiles": "N#Cc1cccc(-c2c[nH]c3ncnc(N4CCOCC4)c23)c1", "values": [{"measurement": "% of inhibition", "setting": "[3]", "result": -31, "unit": "%"}]}, {"smiles": "CC[C@@H]1[C@H](F)C(=O)N[C@@H]1COc1nccc2cc(C(N)=O)c(OC)cc12", "note": "[ZIMLOVISERTIB]", "values": [{"measurement": "% of inhibition", "setting": "[4]; at 0.01 µM", "result": 5.6, "unit": "%"}, {"measurement": "% of inhibition", "setting": "[4]; at 0.04 µM", "result": 8, "unit": "%"}, {"measurement": "% of inhibition", "setting": "[4]; at 0.2 µM", "result": 9.7, "unit": "%"}, {"measurement": "% of inhibition", "setting": "[4]; at 1 µM", "result": 14.3, "unit": "%"}, {"measurement": "% of inhibition", "setting": "[4]; at 5 µM", "result": 12.1, "unit": "%"}]}, {"smiles": "CN(C)CCOc1ccc(-c2nc(-c3ccncc3)c(-c3ccc4c(c3)CC/C4=N\\O)[nH]2)cc1", "values": [{"measurement": "% of control", "setting": "[5]", "result": 100, "unit": "%"}]}, {"smiles": "CCN(CC)CCCCNc1ncc2cc(-c3cc(OC)cc(OC)c3)c(NC(=O)NC(C)(C)C)nc2n1", "values": [{"measurement": "% of control", "setting": "[6]", "result": 100, "unit": "%"}]}]}
